{"source": "patent US8637526B2", "about": "“Pyrazolopyrimidine JAK inhibitor compounds and methods” (Genentech, Inc., priority 2008, dated 2014)", "key": {"human TYK2 kinase domain": {"target": "human TYK2 kinase domain (Homo sapiens (Human), UniProt P29597)", "sequence (P29597 873-1187)": "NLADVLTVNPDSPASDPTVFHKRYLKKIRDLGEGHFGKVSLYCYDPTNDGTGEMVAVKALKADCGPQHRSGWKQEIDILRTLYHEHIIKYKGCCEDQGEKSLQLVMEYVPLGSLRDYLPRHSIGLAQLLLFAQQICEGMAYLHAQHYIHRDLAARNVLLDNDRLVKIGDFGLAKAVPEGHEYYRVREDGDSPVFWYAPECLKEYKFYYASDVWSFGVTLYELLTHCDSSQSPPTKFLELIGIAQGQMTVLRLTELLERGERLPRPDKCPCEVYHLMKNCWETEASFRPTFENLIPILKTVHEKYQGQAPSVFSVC", "assay": "TYK2 Inhibition Assay Protocol (Caliper LabChip peptide phosphorylation)", "assay_type": "biochemical", "details": "enzymatic activity, 25 uM ATP; read-out: TYK2i Ki", "text": "(§1) The catalytically active kinase domain of human JAK1, JAK2, JAK3 or TYK2 was purified from extracts of SF9 insect cells infected with a recombinant baculovirus expression vector encoding the human JAK1, JAK2, JAK3 or TYK2 kinase domains (JAK1 amino acid residues N852-D1154 according to the numbering of GenBank sequence accession number P23458, JAK2 amino acid residues D812-G1132 according to the numbering of GenBank sequence accession number NP_004963.1; JAK3 amino acid residues S783-S1124 according to the numbering of GenBank sequence accession number P52333, and TYK2 amino acid residues N873-C1187 according to the numbering of GenBank sequence accession number P29597). The activity of the JAK1, JAK2, JAK3 or TYK2 kinase domains can be measured by a number of direct and indirect methods, including quantification of phosphorylation of peptide substrates derived from the human JAK3 protein (Saltzman et al., Biochem. Biophys. Res. Commun. 246:627-633 (2004)). The activity of the JAK1, JAK2, JAK3 or TYK2 kinase domains was measured in vitro by monitoring phosphorylation of JAK3 derived peptides using the Caliper LabChip technology.\n(§2) The activity of the isolated JAK1 or TYK2 kinase domain was measured by monitoring phosphorylation of a peptide derived from JAK3 ([…] fluorescently labeled on the N-terminus with 5-carboxyfluorescein using the Caliper LabChip technology (Caliper Life Sciences, Hopkinton, Mass.). […] Reactions were incubated at 22° C. in 384-well polypropylene microtiter plates for 30 minutes and then stopped by addition of 25 uL of an EDTA containing solution (100 mM Hepes pH 7.2, 0.015% Brij-35, 150 mM EDTA), resulting in a final EDTA concentration of 50 mM. After termination of the kinase reaction, the proportion of phosphorylated product was determined as a fraction of total peptide substrate using the Caliper LabChip 3000 according to the manufacturer's specifications. Ki values were then determined using the Morrison tight binding model (Morrison, J. F., Biochim. Biophys. Acta. 185:269-296 (1969); William, J. W. and Morrison, J. F., Meth. Enzymol., 63:437-467 (1979))."}, "human JAK3 kinase domain": {"target": "human JAK3 kinase domain (Homo sapiens (Human), UniProt P52333)", "sequence (P52333 783-1124)": "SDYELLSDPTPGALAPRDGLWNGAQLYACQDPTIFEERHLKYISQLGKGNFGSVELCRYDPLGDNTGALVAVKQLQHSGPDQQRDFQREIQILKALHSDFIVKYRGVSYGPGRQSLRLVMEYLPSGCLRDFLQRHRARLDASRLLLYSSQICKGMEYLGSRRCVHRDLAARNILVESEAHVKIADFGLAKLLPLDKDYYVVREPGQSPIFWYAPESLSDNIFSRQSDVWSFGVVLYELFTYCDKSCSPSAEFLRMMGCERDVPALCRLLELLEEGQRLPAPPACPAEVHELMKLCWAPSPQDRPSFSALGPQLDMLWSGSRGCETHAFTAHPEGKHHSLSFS", "assay": "biochemical", "assay_type": "biochemical", "description": "The activity of the JAK1, JAK2, JAK3 or TYK2 kinase domains was measured in vitro by monitoring phosphorylation of JAK3 derived peptides using the Caliper LabChip technology.\nas §2, with “JAK3” for “JAK1 or TYK2”, “specifications.” for “specifications. Ki values were then determined using the Morrison tight binding model (Morrison, J. F., Biochim. Biophys. Acta. 185:269-296 (1969); William, J. W. and Morrison, J. F., Meth. Enzymol., 63:437-467 (1979)).”"}, "human JAK1 kinase domain": {"target": "human JAK1 kinase domain (Homo sapiens (Human), UniProt P23458)", "sequence (P23458 852-1154)": "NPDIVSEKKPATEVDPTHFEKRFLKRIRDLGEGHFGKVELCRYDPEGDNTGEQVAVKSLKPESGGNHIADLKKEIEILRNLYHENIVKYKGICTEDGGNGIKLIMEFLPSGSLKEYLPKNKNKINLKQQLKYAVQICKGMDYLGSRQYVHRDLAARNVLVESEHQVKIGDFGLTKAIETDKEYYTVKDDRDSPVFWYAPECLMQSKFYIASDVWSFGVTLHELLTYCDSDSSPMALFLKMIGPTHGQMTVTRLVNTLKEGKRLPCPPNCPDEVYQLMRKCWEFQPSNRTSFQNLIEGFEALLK", "assay": "JAK1 Inhibition Assay Protocol (Caliper LabChip peptide phosphorylation)", "assay_type": "biochemical", "details": "enzymatic activity, 25 uM ATP", "text": "as §1, §2"}, "TF-1 cells": {"system": "TF-1 cells", "assay": "EPO-stimulated STAT5 phosphorylation in TF-1 cells (JAK2-dependent signaling, MSD)", "assay_type": "cell-based", "details": "Homo sapiens, read-out: EPO pSTAT5 TF1 EC50", "description": "The activities of compounds were determined in cell-based assays that are designed to measure JAK1 or JAK2-dependent signaling. Compounds were serially diluted in DMSO and incubated with TF-1 cells (American Type Culture Collection (ATCC); Manassas, Va.) in 384-well microtiter plates in OptiMEM medium without phenol red, 1% Charcoal/Dextran stripped FBS, 0.1 mM NEAA, 1 mM sodium pyruvate (Invitrogen Corp.; Carlsbad, Calif.) at a final cell density of 100,000 cells per well and a final DMSO concentration of 0.2%. Human recombinant IL-6 (R&D systems; Minneapolis, Minn.) or EPO (Invitrogen Corp.; Carlsbad, Calif.) was then added at a final concentration of 30 ng/mL or 10 Units/mL, respectively, to the microtiter plates containing the TF-1 cells and compound and the plates were incubated for 30 min at 37° C. Compound-mediated effects on STAT3 or STATS phosphorylation were then measured in the lysates of cells incubated in the presence of IL-6 or EPO, respectively, using the Meso Scale Discovery (MSD) technology (Gaithersburg, Md.) according to the manufacturer's protocol and EC50 values were determined."}, "[1]": {"system": "Set-2 cells, which express the JAK2V617F mutant protein", "assay": "STAT5 phosphorylation in Set-2 cells (JAK2-dependent signaling, MSD)", "assay_type": "cell-based", "details": "Homo sapiens, read-out: pSTAT5 SET2 EC50", "description": "The activities of compounds were determined in cell-based assays that are designed to measure JAK2-dependent signaling or proliferation. Compounds were serially diluted in DMSO and incubated with Set-2 cells (German Collection of Microorganisms and Cell Cultures (DSMZ); Braunschweig, Germany), which express the JAK2V617F mutant protein, in 96-well microtiter plates for 1 hr at 37° C. in RPMI medium at a final cell density of 100,000 cells per well and a final DMSO concentration of 0.57%. Compound-mediated effects on STATS phosphorylation were then measured in the lysates of incubated cells using the Meso Scale Discovery (MSD) technology (Gaithersburg, Md.) according to the manufacturer's protocol and EC50 values were determined. Alternatively, serially diluted compounds were added to 384-well microtiter plates in RPMI medium with 10% fetal bovine serum (Invitrogen Corp.; Carlsbad, Calif.) at a final cell density of 2500 cells per well and a final DMSO concentration of 0.3% and incubated at 37° C. for 72 hours. Cell viability was then determined using the CellTiter-Glo® Luminescent Cell Viability Assay according to the manufacturer's protocol (Promega; Madison, Wis.) and EC50 values were determined."}, "[2]": {"details": "enzymatic activity, 5 uM ATP, read-out: JAK3 Ki"}, "[3]": {"details": "0.5 h, TF-1 cells, EPO 10 Units/mL, 30 min"}}, "note": "Where two headings read alike, the source gives them in different places.", "data": [{"smiles": "Cc1cc(NC(=O)c2cnn3ccc(N)nc23)n(-c2cc(Cl)ccc2C)n1", "note": "[Example 226]", "values": [{"measurement": "Ki", "setting": "human TYK2 kinase domain", "value": 32.8, "unit": "nM"}, {"measurement": "Ki", "setting": "human JAK3 kinase domain; [2]", "value": 15.7, "unit": "nM"}, {"measurement": "Ki", "setting": "human JAK1 kinase domain", "value": 7.4, "unit": "nM"}, {"measurement": "EC50", "setting": "TF-1 cells; [3]", "value": 103, "unit": "nM"}, {"measurement": "EC50", "setting": "[1]; Set-2 cells, 1 hr incubation", "value": 17, "unit": "nM"}]}, {"smiles": "Cc1nc(-c2ccccc2C)c(NC(=O)c2cnn3ccc(N)nc23)s1", "note": "[Example 231, 5-amino-pyrazolo[1,5-a]pyrimidine-3-carboxylic acid (2-methyl-4-o-tolyl-thiazol-5-yl)-amide]", "values": [{"measurement": "Ki", "setting": "human TYK2 kinase domain", "value": 43.8, "unit": "nM"}, {"measurement": "Ki", "setting": "human JAK3 kinase domain; [2]", "value": 12.4, "unit": "nM"}, {"measurement": "Ki", "setting": "human JAK1 kinase domain", "value": 15.2, "unit": "nM"}, {"measurement": "EC50", "setting": "TF-1 cells; TF-1, 0.5 h", "value": 230, "unit": "nM"}, {"measurement": "EC50", "setting": "[1]; SET-2, 1 h", "value": 80.2, "unit": "nM"}]}, {"smiles": "Cc1cc(NC(=O)c2cnn3ccc(Nc4cccc(C(F)(F)F)c4)nc23)on1", "note": "[Example 240, 5-(3-Trifluoromethyl-phenylamino)-pyrazolo-[1,5-a]pyrimidine-3-carboxylic acid (3-methyl-isoxazol-5-yl)-amide]", "values": [{"measurement": "Ki", "setting": "human TYK2 kinase domain", "value": 62.4, "unit": "nM"}, {"measurement": "Ki", "setting": "human JAK3 kinase domain; [2]", "value": 95.1, "unit": "nM"}, {"measurement": "Ki", "setting": "human JAK1 kinase domain", "value": 36, "unit": "nM"}, {"measurement": "EC50", "setting": "TF-1 cells; [3]", "value": 735, "unit": "nM"}, {"measurement": "EC50", "setting": "[1]; Set-2 cells, 1 hr incubation", "value": 365, "unit": "nM"}]}, {"smiles": "Nc1ccn2ncc(C(=O)Nc3c[nH]nc3-c3cc(Cl)ccc3Cl)c2n1", "note": "[Example 248, 5-Amino-pyrazolo[1,5-a]-pyrimidine-3-carboxylic acid [3-(2,5-dichloro-phenyl)-1H-pyrazol-4-yl]-amide]", "values": [{"measurement": "Ki", "setting": "human TYK2 kinase domain", "value": 4.1, "unit": "nM"}, {"measurement": "Ki", "setting": "human JAK3 kinase domain; [2]", "value": 1.7, "unit": "nM"}, {"measurement": "Ki", "setting": "human JAK1 kinase domain", "value": 2.8, "unit": "nM"}, {"measurement": "EC50", "setting": "TF-1 cells; [3]", "value": 55.3, "unit": "nM"}, {"measurement": "EC50", "setting": "[1]; Set-2 cells, 1 hr incubation", "value": 18, "unit": "nM"}]}, {"smiles": "Nc1ccn2ncc(C(=O)Nc3ccnn3-c3cc(Cl)ccc3Cl)c2n1", "note": "[Example 277, 5-Amino-pyrazolo[1,5-a]-pyrimidine-3-carboxylic acid [2-(2,5-dichloro-phenyl)-2H-pyrazol-3-yl]-amide]", "values": [{"measurement": "Ki", "setting": "human TYK2 kinase domain", "value": 43.5, "unit": "nM"}, {"measurement": "Ki", "setting": "human JAK3 kinase domain; [2]", "value": 25.4, "unit": "nM"}, {"measurement": "Ki", "setting": "human JAK1 kinase domain", "value": 17.6, "unit": "nM"}, {"measurement": "EC50", "setting": "TF-1 cells; [3]", "value": 148, "unit": "nM"}, {"measurement": "EC50", "setting": "[1]; Set-2 cells, 1 hr incubation", "value": 43.4, "unit": "nM"}]}, {"smiles": "O=C(NC1CCOCC1)c1cnn2ccc(NC3Cc4ccccc4C3)nc12", "note": "[Example 297, 5-(Indan-2-ylamino)-pyrazolo[1,5-a]pyrimidine-3-carboxylic acid (tetrahydro-pyran-4-yl)-amide]", "values": [{"measurement": "Ki", "setting": "human TYK2 kinase domain", "value": 152, "unit": "nM"}, {"measurement": "Ki", "setting": "human JAK3 kinase domain; [2]", "value": 39.7, "unit": "nM"}, {"measurement": "Ki", "setting": "human JAK1 kinase domain", "value": 46.6, "unit": "nM"}, {"measurement": "EC50", "setting": "TF-1 cells; [3]", "value": 207, "unit": "nM"}, {"measurement": "EC50", "setting": "[1]; Set-2 cells, 1 hr incubation", "value": 170, "unit": "nM"}]}, {"smiles": "O=C(N[C@H]1CC[C@H](O)CC1)c1cnn2ccc(NC3CCc4ccccc43)nc12", "note": "(stereo partly shown) [Example 299, 5-(Indan-1-ylamino)-pyrazolo[1,5-a]pyrimidine-3-carboxylic acid (4-hydroxy-cyclohexyl)-amide]", "values": [{"measurement": "Ki", "setting": "human TYK2 kinase domain", "value": 50.9, "unit": "nM"}, {"measurement": "Ki", "setting": "human JAK3 kinase domain", "value": 14.5, "unit": "nM"}, {"measurement": "Ki", "setting": "human JAK1 kinase domain", "value": 28.7, "unit": "nM"}, {"measurement": "EC50", "setting": "TF-1 cells; [3]", "value": 228, "unit": "nM"}, {"measurement": "EC50", "setting": "[1]; Set-2 cells, 1 hr incubation", "value": 256, "unit": "nM"}]}, {"smiles": "Cc1cc(NC(=O)c2cnn3ccc(N)nc23)n(-c2ccccc2C)n1", "note": "[Example 343, 5-Amino-pyrazolo[1,5-a]-pyrimidine-3-carboxylic acid (5-methyl-2-o-tolyl-2H-pyrazol-3-yl)-amide]", "values": [{"measurement": "Ki", "setting": "human TYK2 kinase domain", "value": 97.6, "unit": "nM"}, {"measurement": "Ki", "setting": "human JAK3 kinase domain; [2]", "value": 28.6, "unit": "nM"}, {"measurement": "Ki", "setting": "human JAK1 kinase domain", "value": 29.9, "unit": "nM"}, {"measurement": "EC50", "setting": "TF-1 cells; [3]", "value": 368, "unit": "nM"}, {"measurement": "EC50", "setting": "[1]; Set-2 cells, 1 hr incubation", "value": 301, "unit": "nM"}]}]}
